Assay results as given in article PMC11121924, “Protopine and Allocryptopine Interactions with Plasma Proteins” (International Journal of Molecular Sciences, 2024).

Columns and labels:
[1] = molecular target: T1, human serum albumin (HSA) (Homo sapiens, UniProt P02768); experiment: UV-Vis absorption titration (Benesi-Hildebrand); dPhe marker displacement by fluorescence; assay type: binding
T1 construct: gene ALB

[2] = molecular target: T2, α-1-acid glycoprotein (AAG, orosomucoid) (Homo sapiens, UniProt P02763); experiment: UV-Vis absorption titration (Benesi-Hildebrand); quinaldine red displacement by fluorescence; assay type: binding
T2 construct: gene ORM1
T2 sequence (P02763 19-201): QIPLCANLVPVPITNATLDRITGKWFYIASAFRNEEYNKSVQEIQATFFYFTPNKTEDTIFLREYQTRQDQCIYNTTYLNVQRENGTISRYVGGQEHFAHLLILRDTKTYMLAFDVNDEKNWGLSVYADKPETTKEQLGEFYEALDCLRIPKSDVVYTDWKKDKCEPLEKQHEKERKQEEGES

T1 sequence (P02768 25-609): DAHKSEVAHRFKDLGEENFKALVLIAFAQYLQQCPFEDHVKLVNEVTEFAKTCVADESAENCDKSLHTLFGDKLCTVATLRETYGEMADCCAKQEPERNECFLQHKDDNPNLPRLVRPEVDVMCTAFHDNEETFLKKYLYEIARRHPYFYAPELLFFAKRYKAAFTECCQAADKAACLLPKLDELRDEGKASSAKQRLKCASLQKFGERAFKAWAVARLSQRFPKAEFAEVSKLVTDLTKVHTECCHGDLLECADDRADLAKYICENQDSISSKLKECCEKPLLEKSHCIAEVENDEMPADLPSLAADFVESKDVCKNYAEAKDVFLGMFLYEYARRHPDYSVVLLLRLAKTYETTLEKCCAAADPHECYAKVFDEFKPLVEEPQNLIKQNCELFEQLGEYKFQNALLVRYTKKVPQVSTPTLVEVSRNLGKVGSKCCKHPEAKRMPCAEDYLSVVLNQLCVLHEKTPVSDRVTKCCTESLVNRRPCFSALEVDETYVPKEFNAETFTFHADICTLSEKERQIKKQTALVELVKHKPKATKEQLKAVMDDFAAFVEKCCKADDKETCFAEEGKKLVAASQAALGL

Row | SMILES | Kd [1] [µM] | Kapp.10^4 [dm^3mol^-1] [2] | Kd ([2]; read-out: Kapp.10^4 [dm^3mol^-1] (converted)) [µM]
1 | CN1CCc2cc3c(cc2C(=O)Cc2ccc4c(c2C1)OCO4)OCO3 [PP, protopine] | 46.9 | 1.34 ± 0.0.03 | 
2 | COc1ccc2c(c1OC)CN(C)CCc1cc3c(cc1C(=O)C2)OCO3 [ACP, allocryptopine] | 19.9 |  | 44.6
